Measured values taken from PubChem BioAssay (NCI).
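Compound exposure: 48 hours, 5 concentrations, 96-well plates. Here, GI50 denotes the concentration required for 50% inhibition of growth. The concentration for full growth arrest is given as TGI.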

Experiments:
Test in all cases: growth of human tumour cells (NCI), 48 h
[1] = test system: 786-0 renal
[2] = test system: ACHN renal
[3] = test system: CCRF-CEM leukemia
[4] = test system: K-562 leukemia
[5] = test system: MALME-3M melanoma
[6] = test system: NCI-H23 lung
[7] = test system: SF-295 CNS
[8] = test system: SK-MEL-5 melanoma
[9] = test system: SK-OV-3 ovarian
[10] = test system: SW-620 colon

Structure (SMILES)	TGI [1] [µM]	TGI [2] [µM]	TGI [3] [µM]	TGI [4] [µM]	TGI [5] [µM]	TGI [6] [µM]	TGI [7] [µM]	TGI [8] [µM]	TGI [9] [µM]	TGI [10] [µM]	GI50 [1] [µM]	GI50 [2] [µM]	GI50 [3] [µM]	GI50 [5] [µM]	GI50 [6] [µM]	GI50 [8] [µM]	GI50 [10] [µM]	GI50 [4] [µM]	GI50 [7] [µM]	GI50 [9] [µM]
Clc1ccc(C=Nc2ccc3c(c2)Cc2ccccc2-3)c(Cl)c1	> 100	> 100	> 100	> 100	> 100	> 100	> 100	> 100	> 100	> 100	–	–	–	–	–	–	–	–	–	–
Nc1nc(F)nc2c1ncn2C1OC(CO)C(O)C1O (stereo unspecified)	> 100	> 100	> 77	> 100	> 100	> 88.3	> 100	> 100	> 100	> 100	13.2	23.2	1.21	28.1	7.99	39.7	60.2	–	–	–
CCOc1cc(C(C)(C)C)ccc1C1=N[C@@](C)(c2ccc(Cl)cc2)[C@@](C)(c2ccc(Cl)cc2)N1C(=O)N1CCN(CCCS(C)(=O)=O)CC1	15.4	11.3	> 100	> 100	11.3	24.9	15.2	3.21	32.9	29.3	3.2	0.505	4.1	0.274	10.4	1.63	11.2	3.71	4.13	14
O=C1CSC(/C(=N/Nc2ccccc2)c2nc3ccccc3[nH]2)=N1	80	> 100	53.6	> 100	> 100	> 100	58.5	> 100	73.5	> 100	–	–	–	–	–	–	–	–	–	–
Cc1ccc2[nH]c(O)c(N=Nc3ccc(S(N)(=O)=O)cc3)c2c1	> 25	> 25	> 25	> 25	> 25	> 25	> 25	> 25	> 25	> 25	23.5	9.74	15.6	> 22.4	> 21.5	11	10.2	13.8	> 14.9	19.9
CN(C)C(=O)[C@H](O)[C@H](Cc1ccccc1)NC(=O)c1cc2cc(Cl)ccc2[nH]1	> 85.2	60.8	> 100	> 100	44.1	> 100	39	30.6	97.8	> 100	27.3	22.2	30.2	16.2	25.8	15.6	26.4	25.8	17.3	29.1
C[C@H](O)C(=O)N1CCC(CCn2c(Sc3cc4c(cc3Br)OCO4)nc3c(N)ncnc32)CC1	> 100	> 100	> 100	> 100	> 100	> 100	> 22.8	> 100	> 100	> 100	3.77	0.84	0.49	0.807	0.689	2.95	0.49	0.472	0.741	0.48
CC1=C[C@H]2c3c(c(O)c(O)c4oc(-c5ccccc5)cc(=O)c34)[C@H](c3cc(O)c(O)c4oc(-c5ccccc5)cc(=O)c34)[C@H]2C(C)(C)C1	7.83	5.67	> 75	> 75	7.76	2.56	1.76	2.16	10.9	13.9	1.71	0.679	0.67	1.57	0.375	0.974	0.934	0.294	0.312	1.76
COc1ccc(/C=C/C(=O)C(CC2CCC2)C(=O)/C=C/c2ccc(OC)c(OC)c2)cc1OC	3.45	2.95	> 100	> 100	5.04	5.87	7.22	3.25	6.69	3.57	1.83	1.48	2.05	2.09	2.19	1.77	1.55	2.15	2.5	2.69
COc1cc(/C=C/c2ccc(OC)c(OC)c2)cc(OC)c1	44.7	89.8	> 100	> 100	> 100	65.3	68.9	41.1	> 100	> 100	–	–	–	–	–	–	–	–	–	–
CCN(CC)c1ccc(N=Nc2ccc(-c3nc4ccc[n+](C)c4s3)cc2)cc1	59.1	–	> 100	> 100	26.3	24.9	37	33.9	38.1	26.1	–	–	–	–	–	–	–	–	–	–
